# Reference: patent US8637501B2, “Azinone-substituted azepino[b]indole and pyrido-pyrrolo-azepine MCH-1 antagonists, methods of making, and use thereof” (Albany Molecular Research, Inc., priority 2009, dated 2014)
# Structures can show the parent of a compound that is named as a salt.
# Target: human MCH-1 receptor (Homo sapiens (Human), UniProt Q99705)
# Test: Binding Assay for Human Melanin-Concentrating Hormone (MCH-1) Receptor
# Settings: radioligand displacement, membranes from CHO-K1 cells expressing human MCH-1 receptor; Ki from IC50 by Cheng Prusoff equation; read-out: MCH1 Ki
# Procedure: Binding Assay for Human Melanin-Concentrating Hormone (MCH-1) Receptor
# Evaluation of the affinity of compounds for the human MCH-1 receptor was accomplished using 4-(3,4,5-tritritiumbenzyloxy)-1-(1-(2-(pyrrolidin-1-yl)ethyl)-1H-indazol-5-yl)pyridin-2(1H)-one and membranes prepared from stable CHO-K1 cells expressing the human MCH-1 receptor obtained from Euroscreen (Batch 1138). Cell membrane homogenates (8.92 μg protein) were incubated for 60 min at 25° C. with 1.4 nM of the [^3H]-labeled compound in the absence or presence of the test compound in 50 mM Tris-HCl buffer, pH 7.4. Nonspecific binding was determined in the presence of 50 μM 1-(5-(4-cyanophenyl)bicyclo[3.1.0]hexan-2-yl)-3-(4-fluoro-3-(trifluoromethyl)phenyl)-1-(3-(4-methylpiperazin-1-yl)propyl)urea. Following incubation, the samples were filtered rapidly under vacuum through Skatron 11731 filters, pre-soaked in 0.5% polyethylenimine, and washed with ice-cold 50 mM Tris-HCl buffer, pH 7.4, (wash setting 9,9,0) using a Skatron cell harvester. The filters were counted for radioactivity in a liquid scintillation counter (Tri-Carb 2100TR, Packard) using a scintillation cocktail (Ultima Gold MV, Perkin Elmer).
# The results are expressed as a percent inhibition of the control radioligand specific binding. The IC50 value (concentration causing a half-maximal inhibition of control specific binding) and Hill coefficient (nH) were determined by non-linear regression analysis of the competition curve using Hill equation curve fitting. The inhibition constant (Ki) was calculated from the Cheng Prusoff equation: (Ki=IC50/(1+(L/KD)), where L=concentration of radioligand in the assay, and KD=affinity of the radioligand for the receptor.
# human MCH-1 receptor, sequence (Q99705 whole entry): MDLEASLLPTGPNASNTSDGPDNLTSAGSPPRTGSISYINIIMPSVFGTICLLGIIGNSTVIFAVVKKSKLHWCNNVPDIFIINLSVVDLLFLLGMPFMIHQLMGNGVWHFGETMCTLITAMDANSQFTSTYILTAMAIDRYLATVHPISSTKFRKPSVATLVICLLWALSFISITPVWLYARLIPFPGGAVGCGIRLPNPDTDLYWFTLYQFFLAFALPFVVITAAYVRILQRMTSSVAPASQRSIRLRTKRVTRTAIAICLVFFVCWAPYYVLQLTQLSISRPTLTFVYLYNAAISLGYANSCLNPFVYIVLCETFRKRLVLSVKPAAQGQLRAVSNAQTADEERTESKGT
row,Ki,Structure (SMILES)
1,10.1 nM,"Cn1c2c(c3ccc(-n4ccc(-c5ccc(C(F)(F)F)cn5)cc4=O)cc31)CCNCC2 [Example 3, 1-(6-Methyl-1,2,3,4,5,6-hexahydroazepino[4,5-b]indol-8-yl)-4-(5-(trifluoromethyl)pyridin-2-yl)pyridin-2(1H)-one dihydrochloride]"
2,7.1 nM,"Cn1c2c(c3ccc(-n4ccc(-c5ccc(C(F)(F)F)nc5)cc4=O)cc31)CCNCC2 [Example 4, 1-(6-Methyl-1,2,3,4,5,6-hexahydroazepino[4,5-b]indol-8-yl)-4-(6-(trifluoromethyl)pyridin-3-yl)pyridin-2(1H)-one dihydrochloride]"
3,11.8 nM,"Cn1c2c(c3ccc(-n4ccc(OCc5ccc(C(F)(F)F)nc5)cc4=O)cc31)CCNCC2 [Example 5, 1-(6-Methyl-1,2,3,4,5,6-hexahydroazepino[4,5-b]indol-8-yl)-4-((6-(trifluoromethyl)pyridin-3-yl)methoxy)pyridin-2(1H)-one dihydrochloride]"
4,131 nM,"Cn1c2c(c3ccc(-n4ccc(-c5cnc(C(F)(F)F)nc5)cc4=O)cc31)CCNCC2 [Example 6, 1-(6-Methyl-1,2,3,4,5,6-hexahydroazepino[4,5-b]indol-8-yl)-4-(2-(trifluoromethyl)pyrimidin-5-yl)pyridin-2(1H)-one dihydrochloride]"
5,148 nM,"O=c1cc(-c2ccc(C(F)(F)F)nn2)ccn1-c1ccc2c3c([nH]c2c1)CCNCC3 [Example 8, 1-(1,2,3,4,5,6-Hexahydroazepino[4,5-b]indol-8-yl)-4-(6-(trifluoromethyl)pyridazin-3-yl)pyridin-2(1H)-one dihydrochloride]"
6,1370 nM,"O=c1cc(-c2ccc(C(F)(F)F)cn2)ccn1-c1ccc2c3c([nH]c2c1)CCNCC3 [Example 9, 1-(1,2,3,4,5,6-Hexahydroazepino[4,5-b]indol-8-yl)-4-(5-(trifluoromethyl)pyridin-2-yl)pyridin-2(1H)-one dihydrochloride]"
7,13.4 nM,"Cn1c2c(c3ccc(-n4ncc(OCc5ccc(F)cn5)cc4=O)cc31)CCNCC2 [Example 10, 5-((5-Fluoropyridin-2-yl)methoxy)-2-(6-methyl-1,2,3,4,5,6-hexahydroazepino[4,5-b]indol-8-yl)pyridazin-3(2H)-one dihydrochloride]"
8,49 nM,"Cc1ccc(-c2ccn(-c3ccc4c5c(n(C)c4c3)CCNCC5)c(=O)c2)cn1 [Example 11, 1-(6-Methyl-1,2,3,4,5,6-hexahydroazepino[4,5-b]indol-8-yl)-4-(6-methylpyridin-3-yl)pyridin-2(1H)-one dihydrochloride]"
9,11.4 nM,"O=c1cc(-c2ccc(C(F)(F)F)cc2)ccn1-c1ccc2c3c([nH]c2c1)CCNCC3 [Example 12, 1-(1,2,3,4,5,6-Hexahydroazepino[4,5-b]indol-8-yl)-4-(4-(trifluoromethyl)phenyl)pyridin-2(1H)-one hydrochloride]"
10,13.7 nM,"CC(C)N1CCc2c(n(C)c3cc(-n4ccc(OCc5ccc(F)cn5)cc4=O)ccc23)CC1 [Example 16, 4-((5-Fluoropyridin-2-yl)methoxy)-1-(3-isopropyl-6-methyl-1,2,3,4,5,6-hexahydroazepino[4,5-b]indol-8-yl)pyridin-2(1H)-one hydrochloride]"
11,242 nM,"Cl.Cn1c2c(c3ccc(-n4ccc(-c5ccc(C(F)(F)F)cn5)cc4=O)cc31)CCCNC2 [Example 20, 1-(10-Methyl-1,2,3,4,5,10-hexahydroazepino[3,4-b]indol-8-yl)-4-(5-trifluoromethyl)pyridin-2-yl)pyridin-2(1H)-one hydrochloride]"
12,11.2 nM,"Cn1c2c(c3ccc(-n4ccc(OCc5ccc(F)cn5)cc4=O)cc31)CNCCC2 [Example 22, 4-((5-Fluoropyridin-2-yl)methoxy)-1-(6-methyl-1,2,3,4,5,6-hexahydroazepino[4,3-b]indol-8-yl)-)pyridin-2(1H)-one hydrochloride]"
13,6.4 nM,"Cn1c2c(c3ccc(-n4ccc(OCc5ccc(C(F)(F)F)nc5)cc4=O)cc31)CNCCC2 [Example 24, 1-(6-Methyl-1,2,3,4,5,6-hexahydroazepino[4,3-b]indol-8-yl)-4-((6-(trifluoromethyl)pyridin-3-yl)methoxy)pyridin-2(1H)-one hydrochloride]"
14,42.3 nM,"Cn1c2c(c3ccc(-n4ccc(-c5cnc(C(F)(F)F)nc5)cc4=O)cc31)CNCCC2 [Example 25, 1-(6-Methyl-1,2,3,4,5,6-hexahydroazepino[4,3-b]indol-8-yl)-4-(2-(trifluoromethyl)pyrimdin-5-yl)pyridin-2(1H)-one hydrochloride]"
15,6.1 nM,"Cl.Cn1c2c(c3ccc(-n4ccc(-c5ccc(C(F)(F)F)cc5)cc4=O)cc31)CNCCC2 [Example 26, 1-(6-Methyl-1,2,3,4,5,6-hexahydroazepino[4,3-b]indol-8-yl)-4(4-trifluoromethyl)phenyl)pyridin-2(1H)-one hydrochloride]"
16,5 nM,"CN1CCCc2c(c3ccc(-n4ccc(OCc5ccccc5)cc4=O)cc3n2C)C1 [Example 29, 4-(Benzyloxy)-1-(2,6-dimethyl-1,2,3,4,5,6-hexahydroazepino[4,3-b]indol-8-yl)pyridin-2(1H)-one hydrochloride]"
17,5 nM,"CCN1CCCc2c(c3ccc(-n4ccc(OCc5ccccc5)cc4=O)cc3n2C)C1 [Example 30, 4-(Benzyloxy)-1-(2-ethyl-6-methyl-1,2,3,4,5,6-hexahydroazepino[4,3-b]indol-8-yl)pyridin-2(1H)-one hydrochloride]"
18,9.4 nM,"CC(C)N1CCCc2c(c3ccc(-n4ccc(OCc5ccccc5)cc4=O)cc3n2C)C1 [Example 31, 4-(Benzyloxy)-1-(2-isopropyl-6-methyl-1,2,3,4,5,6-hexahydroazepino[4,3-b]indol-8-yl)pyridin-2(1H)-one hydrochloride]"
19,10.6 nM,"Cc1ccc(COc2ccn(-c3ccc4c5c(n(C)c4c3)CCCNC5)c(=O)c2)cn1 [Example 34, 1-(6-Methyl-1,2,3,4,5,6-hexahydroazepino[4,3-b]indol-8-yl)-4-((6-methylpyridin-3-yl)methoxy)pyridin-2(1H)-one hydrochloride]"
20,5.8 nM,"O=c1cc(OCc2ccccc2)ccn1-c1ccc2c3c([nH]c2c1)CCCNC3 [Example 35, 4-(Benzyloxy)-1-(1,2,3,4,5,6-hexahydroazepino[4,3-b]indol-8-yl)pyridin-2(1H)-one hydrochloride]"
21,16.8 nM,"Cn1c2c(c3ccc(-n4ncc(OCc5ccc(F)cn5)cc4=O)cc31)CNCCC2 [Example 39, 5-((5-Fluoropyridin-2-yl)methoxy)-2-(6-methyl-1,2,3,4,5,6-hexahydroazepino[4,3-b]indol-8-yl)pyridazin-3(2H)-one hydrochloride]"
22,7.2 nM,"Cl.Cn1c2c(c3ccc(-n4ccc(OCc5ccc(F)cn5)cc4=O)cc31)CCNCC2 [Example 40, 4-((5-Fluoropyridin-2-yl)methoxy-1-(6-methyl-1,2,3,4,5,6-hexahydroazepino[4,5-b]indol-8-yl)pyridin-2(1H)-one hydrochloride]"
23,10 nM,"Cl.Cn1c2c(c3ccc(-n4ccc(-c5ccc(C(F)(F)F)cc5)cc4=O)cc31)CCNCC2 [Example 41, 1-(6-Methyl-1,2,3,4,5,6-hexahydroazepino[4,5-b]indol-8-yl)-4(4-trifluoromethyl)phenyl)pyridin-2(1H)-one hydrochloride]"
24,17.8 nM,"CC(C)N1CCc2[nH]c3cc(-n4ccc(OCc5ccc(F)cn5)cc4=O)ccc3c2CC1 [Example 42, 4-((5-Fluoropyridin-2-yl)methoxy)-1-(3-isopropyl-1,2,3,4,5,6-hexahydroazepino[4,5-b]indol-8-yl)-pyridin-2(1H)-one hydrochloride]"
25,8.9 nM,"Cn1c2c(c3ccc(-n4ccc(OCc5ccccc5)cc4=O)cc31)CCNCC2 [Example 43, 4-(Benzyloxy)-1-(6-methyl-1,2,3,4,5,6-hexahydroazepino[4,5-b]indol-8-yl)pyridin-2(1H)-one hydrochloride]"
26,11.6 nM,"CN1CCc2c(n(C)c3cc(-n4ccc(OCc5ccccc5)cc4=O)ccc23)CC1 [Example 44, 4-(benzyloxy)-1-(3,6-dimethyl-1,2,3,4,5,6-hexahydroazepino[4,5-b]indol-8-yl)pyridin-2(1H)-one hydrochloride]"
27,26 nM,"Cc1ccc(COc2ccn(-c3ccc4c5c(n(C)c4c3)CCNCC5)c(=O)c2)cn1 [Example 45, 1-(6-Methyl-1,2,3,4,5,6-hexahydroazepino[4,5-b]indol-8-yl)-4-((6-methylpyridin-3-yl)methoxy)pyridin-2(1H)-one dihydrochloride]"

row,Structure (SMILES),Ki
1,"Cn1c2c(c3ccc(-n4ccc(-c5ccc(C(F)(F)F)nn5)cc4=O)cc31)CCNCC2 [Example 2, 1-(6-Methyl-1,2,3,4,5,6-hexahydroazepino[4,5-b]indol-8-yl)-4-(6-(trifluoromethyl)pyridazin-3-yl)pyridin-2(1H)-one dihydrochloride]",14.4 nM
2,"O=c1cc(OCc2ccc(F)cn2)ccn1-c1ccc2c3c([nH]c2c1)CCNCC3 [Example 13, 4-((5-Fluoropyridin-2-yl)methoxy)-1-(1,2,3,4,5,6-hexahydroazepino[4,5-b]indol-8-yl)pyridin-2(1H)-one dihydrochloride]",10.3 nM
